Experimental findings from ChEMBL document CHEMBL6087449, “Identification of an Isoxazole Derivative as an Antitubercular Compound for Targeting the FadD Enzymes of Mycobacterium tuberculosis” (J Med Chem, 2025) are described below.

One may read the IC50 as the point on the concentration scale where inhibition reaches its midpoint. As a reminder, the MIC is the lowest concentration found to suppress growth. The low end stands for a more susceptible organism, the high end for a less susceptible organism.

≈ marks a conversion by molar mass, not a printed value.

Assay [1] concerns Mycobacterium tuberculosis. The experiment in a line: Antitubercular activity against Mycobacterium tuberculosis H37Rv assessed as inhibition of bacterial growth incubated for 5 days by Alamar Blue based assay. As to conditions: 120 h. It counts as functional, organism-based. For orientation: The colour change of resazurin is a common sign of viable cells or microbes.
Assay [2] has as its system Mycobacterium tuberculosis. The assay can be described thus: Antitubercular activity against Mycobacterium tuberculosis by alamar blue assay. It counts as functional.
Assay [3] deals with Mycobacterium tuberculosis. The experiment in a line: Antitubercular activity against Mycobacterium tuberculosis H37Rv. The class given is functional.
The subject of assay [4] is Mycolicibacterium smegmatis. The experiment in a line: Antimycobacterial activity against Mycobacterium smegmatis. The class given is functional.

In the case of `Oc1ccccc1-c1cc(C(F)(F)F)no1`, the half-maximal inhibitory concentration (IC50) in assay [1] turned out to be 11.7 µg/mL (≈ 51.1 µM).

`COc1ccc(-c2onc(C(F)(F)F)c2-c2ccccc2)c(O)c1`: the IC50 in assay [1] was 21.7 µg/mL (≈ 64.7 µM).

As for `CCCCCCCCCCCC(=O)NS(=O)(=O)OC[C@H]1O[C@@H](n2cnc3c(N)ncnc32)[C@H](O)[C@@H]1O`, the MIC in assay [2] amounted to 100 µM (≈ 52.9 µg/mL); in assay [3], 100 µM (≈ 52.9 µg/mL); in assay [4] it was 215 µM (≈ 114 µg/mL).

For the compound `Cc1ccc(O)c(-c2cc(C(F)(F)F)no2)c1`, the IC50 in assay [1] is 10.5 µg/mL (≈ 43.2 µM).
